Experimental data taken from US12466804B2 (BRISTOL-MYERS SQUIBB COMPANY, priority 2019, dated 2025).
Read-outs that look alike come from different tables or passages of the source. Blank lines part the entries; values can stand above or below the compound they belong to.

Experiments:
IPF patients = details: 26-week clinical trial in IPF patients (Palmer et al.); cited from earlier work
human LPA1 = target: T1, human LPA1 (Homo sapiens, UniProt Q92633); assay: LPA1 functional antagonist assay (LPA-induced calcium flux); type: cell-based
T1 construct: expressed in transfected cells; host or cells: Chinese hamster ovary (CHO) cells
Method: The effectiveness of compounds of the present invention as LPA1 inhibitors can be determined in an LPA1 functional antagonist assay as follows:
The cells were then equilibrated to room temperature for 30 minutes before the assay. […] IC50 values were determined by fitting data to a 4-parameter logistic equation (GraphPad Prism, San Diego CA).

nerve-injured mice = details: pretreatment, nerve-injured mice (Inoue et al.); cited from earlier work
[1] = system: human foetal lung fibroblasts; details: Tager et al.; cited from earlier work
UUO mice = details: cited from earlier work
[2] = system: mouse epithelial renal cell line, MCT; details: MCT cells, co-treatment with LPA; cited from earlier work
[3] = system: pancreatic cancer cell lines; details: cited from earlier work
[4] = CHO cells overexpressing human LPA1, calcium flux induced by 10 nM LPA, read-out: hLPA1 IC50

T1 sequence (Q92633 whole entry): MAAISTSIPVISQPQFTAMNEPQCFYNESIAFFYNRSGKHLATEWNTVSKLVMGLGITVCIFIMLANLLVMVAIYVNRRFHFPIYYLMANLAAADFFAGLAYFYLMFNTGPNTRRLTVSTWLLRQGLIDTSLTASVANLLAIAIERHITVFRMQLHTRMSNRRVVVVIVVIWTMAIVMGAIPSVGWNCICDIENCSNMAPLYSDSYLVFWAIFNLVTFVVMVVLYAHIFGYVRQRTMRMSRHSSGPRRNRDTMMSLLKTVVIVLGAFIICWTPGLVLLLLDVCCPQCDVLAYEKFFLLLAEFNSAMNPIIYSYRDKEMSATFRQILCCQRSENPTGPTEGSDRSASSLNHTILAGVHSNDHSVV

IC50 (human LPA1; [4]): 372 nM
SMILES: Cc1nc(-c2nnn(C)c2COC(=O)N(C)CC2CCC2)ccc1OCC12CC(C(=O)O)(C1)C2 [Example 52, 3-(((6-(5-((((cyclobutylmethyl)(methyl)carbamoyl)oxy)methyl)-1-methyl-1H-1,2,3-triazol-4-yl)-2-methylpyridin-3-yl)oxy)methyl)bicyclo[1.1.1]pentane-1-carboxylic acid]

IC50 (human LPA1; [4]): 604 nM
SMILES: Cc1noc(-c2ccc(OCC34CC(C(=O)O)(C3)C4)cc2)c1COC(=O)N(C)C1CCCC1 [Example 53, 3-((4-(4-(((cyclopentyl(methyl)carbamoyl)oxy)methyl)-3-methylisoxazol-5-yl)phenoxy)methyl)bicyclo[1.1.1]pentane-1-carboxylic acid]

IC50 (human LPA1; [4]): 1980 nM
SMILES: Cc1nc(-c2nnn(C)c2CNc2noc(CCC(C)C)n2)ccc1OCC12CC(C(=O)O)(C1)C2 [Example 55, 3-(((6-(5-(((5-isopentyl-1,2,4-oxadiazol-3-yl)amino)methyl)-1-methyl-1H-1,2,3-triazol-4-yl)-2-methylpyridin-3-yl)oxy)methyl)bicyclo[1.1.1]pentane-1-carboxylic acid]

IC50 (human LPA1; [4]): 82 nM
SMILES: Cc1nc(-c2nnn(C)c2COC(=O)N(C)CC2CCC2)ccc1OCC12CCC(C(=O)O)(C1)C2 [Example 57, 4-(((6-(5-((((cyclobutylmethyl)(methyl)carbamoyl)oxy)methyl)-1-methyl-1H-1,2,3-triazol-4-yl)-2-methylpyridin-3-yl)oxy)methyl)bicyclo[2.1.1]hexane-1-carboxylic acid]

IC50 (human LPA1; [4]): 22 nM
SMILES: Cc1nc(-c2onc(C)c2COC(=O)N(C)C2CCCC2)ccc1OCC12CCC(C(=O)O)(C1)C2 [Example 58, 4-(((6-(4-(((cyclopentyl(methyl)carbamoyl)oxy)methyl)-3-methylisoxazol-5-yl)-2-methylpyridin-3-yl)oxy)methyl)bicyclo[2.1.1]hexane-1-carboxylic acid]

The next lines start with the compound.

SMILES: Cc1noc(-c2ccc(-c3ccc(C4(C(=O)O)CC4)cc3)cc2)c1NC(=O)O[C@H](C)c1ccccc1 [BMS-986020]
rate of FVC (forced vital capacity) decline (IPF patients): significantly reduce

SMILES: Cc1noc(-c2ccc(OCC3CC(C(=O)O)C3)cc2)c1COC(=O)N(C)C1CCCC1 (stereo not drawn) [Example 30, 3-((4-(4-(((Cyclopentyl(methyl)carbamoyl)oxy)methyl)-3-methylisoxazol-5-yl)phenoxy)methyl)cyclobutanecarboxylic acid]
IC50 (human LPA1; [4]): 316 nM

SMILES: CN(C(=O)OCc1c(-c2ccc(OCC34CC(C(=O)O)(C3)C4)cn2)nnn1C)C1CCCC1 [Example 51, 3-(((6-(5-(((cyclopentyl(methyl)carbamoyl)oxy)methyl)-1-methyl-1H-1,2,3-triazol-4-yl)pyridin-3-yl)oxy)methyl)bicyclo[1.1.1]pentane-1-carboxylic acid]
IC50 (human LPA1; [4]): 417 nM

SMILES: CN(CC1CCC1)C(=O)OCc1c(-c2ccc(OCC34CC(C(=O)O)(C3)C4)cn2)nnn1C [Example 54, 3-(((6-(5-((((cyclobutylmethyl)(methyl)carbamoyl)oxy)methyl)-1-methyl-1H-1,2,3-triazol-4-yl)pyridin-3-yl)oxy)methyl)bicyclo[1.1.1]pentane-1-carboxylic acid]
IC50 (human LPA1): 427 nM

SMILES: C[C@@H](N)[C@H]1CC[C@H](C(=O)Nc2ccncc2)CC1 [Example Y-27632]
allodynia and hyperalgesia (nerve-injured mice): completely abolished

SMILES: Cc1noc(-c2ccc(CSCCC(=O)O)cc2)c1NC(=O)OC(C)c1ccccc1Cl (stereo not drawn) [Ki16425]
chemotaxis of human foetal lung fibroblasts induced by BAL from IPF patients [1]: blocked
development of renal fibrosis (UUO mice): closely resembled the profile of LPA1 (−/−) mice
LPA-induced expression of the profibrotic cytokine CTGF [2]: almost completely suppressed
LPA-induced and ascites-induced invasion activity ([3]; highly peritoneal metastatic pancreatic cancer cell line): blocked
in vitro migration in response to LPA and peritoneal fluid (ascites) from pancreatic cancer patients ([3]; pancreatic cancer cell lines (Yamada et al.)): effectively blocked
